Experimental data as given in patent US11957652B2, “Compositions comprising citrulline and leucine and their use in the treatment of diabetes and metabolic syndrome” (SOCIÉTÉ DES PRODUITS NESTLÉ S.A., priority 2013, dated 2024).

Test system: rats fed a high fat diet
Test: Fasting glucose and insulin plasma levels in rats fed a high fat diet
Format: in vivo, rat
Conditions: rats on high fat diet, 1 g/kg daily of citrulline or leucine, or 1.0 g/kg leucine and 1.0 g/kg citrulline; for fasting plasma glucose levels (glycemia): compared to high fat diet alone (FIG. 1); for fasting insulin plasma levels (insulinemia): compared to high fat diet alone and to chow-fed healthy rats (FIG. 2)
Method: Compositions comprising citrulline, leucine, or […] were tested for their effect on fasting glucose levels and insulin plasma levels. Briefly, rats were split into six groups and fed either chow, a high fat diet, a high fat diet with 1 g/kg leucine daily, a high fat diet with 0.2 g/kg citrulline, a high fat diet with 1 g/kg citrulline daily or a high fat diet with a composition comprising 1.0 g/kg leucine and 1.0 g/kg citrulline.

SMILES	fasting plasma glucose levels (glycemia)	fasting insulin plasma levels (insulinemia)
NC(=O)NCCC[C@H](N)C(=O)O [citrulline]	decrease	decrease
CC(C)C[C@H](N)C(=O)O [leucine]	decrease	decrease
